Results on five molecules are retold here after patent US20110144177A1, “Carbamoyl Esters That Inhibit Cholinesterase And Release Pharmacologically Active Agents” (priority 2003, published 2011).

Data set [1] has as its system scopolamine-induced amnesia. The experiment in a line: Scopolamine induced amnesia in multiple trial passive (inhibitory) avoidance assay. It is filed as in vivo, rat. To be noted: for Performance relative to scopolamine / Performance relative to saline: at the most effective dose, latency to enter dark chamber; for Performance relative to scopolamine: relative to impaired (scopolamine) group; for Performance relative to saline: relative to unimpaired (saline) control group; for most effective dose (the dose that increases the latency the most): i.p. immediately after training, scopolamine 0.75 mg/kg, retention 24 hours later. The text has this:
Inhibitory avoidance is used as a cognitive performance screen because the discrete nature of the task allows for precise pharmacological manipulation and for the ability to selectively study acquisition, consolidation, or recall or learned information.
The inhibitory avoidance apparatus used in these experiments consisted of a light chamber and a dark chamber, which were joined by means of a sliding guillotine door. Training involved placing a rat inside the light chamber with its head facing away from the door. Ten seconds later, the sliding door was opened, and the latency to enter the dark chamber was recorded (100 second maximum). When the rat entered the dark chamber, it received a continuous footshock (0.4 mA) through the metal grid floor until it returned to the light chamber. This sequence of events continued until the rat remained in the light chamber for a period of 100 consecutive seconds or until a maximum of 5 footshocks had been received.
Retention testing, or the ability of the rat to remember the previous events in the inhibitory avoidance apparatus, was conducted 24 hours after the initial testing. The rat was placed into the light chamber with its head facing away from the door. Ten seconds later, the door was opened, allowing the rat access to the dark chamber. No footshock was administered during retention testing. Latency to enter the dark chamber was recorded (900 seconds maximum) and used as a measure of memory.
To assess the effects of the carbamoyl esters on scopolamine-induced amnesia, rats were injected with saline or scopolamine hydrochloride (0.75 mg/kg) 30 minutes prior to training on the Inhibitory Avoidance task. Immediately following the training trial, rats were injected with saline or the carbamoyl ester.
Retention for the task in scopolamine or saline treated rats, was assessed as described above, 24 hours later. No compound (drug) was administered to the rat prior to the retention test and no shock was given during retention testing. For retention testing, the rat was placed into the light chamber. Fifteen seconds later, the door was automatically opened and latency to enter the dark compartment was measured. The latency to enter the dark chamber is the primary measure of memory on this task. Carbamoyl esters were evaluated in this protocol.

Data set [2] addresses human recombinant acetylcholinesterase (Homo sapiens, UniProt P22303). The format is biochemical.
The subject of data set [3] is total cholinesterase activity in the brain. The experiment in a line: Total cholinesterase activity in brain homogenate after i.p. injection. The format is in vivo, Male Wistar rats. The settings on record: for tolerability of the dose: i.p. dose giving a cholinergic behavioral effect with minimal side effects. How it is done: Animals were decapitated 3 hours after injection and the brains rapidly removed. The brain tissue was diced into small pieces, placed on ice and immediately homogenized with a Polytron PT1200 (Kinematic AG) in 10 ml ice cold Tris with 0.1% Triton-X and protease inhibitors. The protease inhibitors in the extraction buffer were Antipain (10 μM), Aprotinin (5 TIU/mg protein), Bestatin ([…]), Leupeptin (10 μM) and Pepstatin (1 μM). The final dilution of the homogenate in the final assay mixture was 120-fold.
Total cholinesterase activity was determined by a modification of the colorimetric method of Ellmann, et al. (Biochem. Pharmacol., 7:88-95 (1961)), as described above. Hydrolysis of acetylthiocholine was monitored indirectly by measurement of the formation of the conjugate between thiocholine and DTNB. Optical density at 405 nm was recorded during five (5) minutes employing a microplate spectrophotometer (Polarstar, BMG Labtech), and plotted against time. The initial rates were calculated from the slope of the linear portion of the graph.
Cholinesterase activity was normalized for protein content of the homogenate. Relative cholinesterase activity was calculated as the ratio of normalized cholinesterase activity in a rat treated with a control compound or a carbamoyl ester over normalized cholinesterase activity in saline treated rats.

Sequence of human recombinant acetylcholinesterase (P22303 32-614): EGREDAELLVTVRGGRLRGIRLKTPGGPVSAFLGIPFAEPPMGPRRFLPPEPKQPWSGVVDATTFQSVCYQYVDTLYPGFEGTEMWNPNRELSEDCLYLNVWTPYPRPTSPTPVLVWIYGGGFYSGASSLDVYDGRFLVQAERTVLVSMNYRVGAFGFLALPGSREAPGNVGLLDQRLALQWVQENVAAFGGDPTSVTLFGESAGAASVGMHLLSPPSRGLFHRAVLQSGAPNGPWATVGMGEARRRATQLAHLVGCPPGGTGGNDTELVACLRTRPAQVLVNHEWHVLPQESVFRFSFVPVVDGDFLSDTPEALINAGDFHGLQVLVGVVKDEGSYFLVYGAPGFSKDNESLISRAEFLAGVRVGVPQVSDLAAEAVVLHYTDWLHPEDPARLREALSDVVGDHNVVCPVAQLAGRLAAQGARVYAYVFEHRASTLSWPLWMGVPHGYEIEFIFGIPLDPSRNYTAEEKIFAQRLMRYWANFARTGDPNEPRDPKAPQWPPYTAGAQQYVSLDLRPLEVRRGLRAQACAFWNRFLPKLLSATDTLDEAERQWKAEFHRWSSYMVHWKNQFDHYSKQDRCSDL

As for `C[C@H](Cc1ccccc1)NC(=O)Oc1ccc2c(c1)[C@]1(C)CCN(C)[C@@H]1N2C` [Compound 14], in data set [1], the “Performance relative to scopolamine” value came to 186%, the “Performance relative to saline” value came to 51% and the “most effective dose (the dose that increases the latency the most)” value was found to be 0.02 mg/kg. For the same molecule, the “fold increase in enzymatic activity compared to rivastigmine” value in data set [2] was 10 fold.

Regarding `C[C@H](Cc1ccccc1)NC(=O)Oc1cccc([C@H](C)N(C)C)c1` [Compound 9], in data set [1], the “Performance relative to scopolamine” value was 306%, the “Performance relative to saline” value came to 83% and the “most effective dose (the dose that increases the latency the most)” value is listed as 0.1 mg/kg. The molecule also returned a ChE inhibition in data set [3] (8 mg/kg i.p., brain 3 hours after injection) of 41%. In data set [3], the “tolerability of the dose” value was “well-tolerated”.

In the case of `CC(Cc1ccccc1)NC(=O)Oc1cccc([C@H](C)N(C)C)c1` (some centres unmarked) [Compound 3], in data set [1], the “Performance relative to scopolamine” value stood at 294%, the “Performance relative to saline” value was determined as 100% and the “most effective dose (the dose that increases the latency the most)” value was found to be 1.4 mg/kg.

For the molecule `CCN(C)C(=O)Oc1cccc([C@H](C)N(C)C)c1` [Rivastigmine, reference compound], in data set [1], the “most effective dose (the dose that increases the latency the most)” value worked out at 0.25 mg/kg. Further, the “tolerability of the dose” value in data set [3] was “well-tolerated”.

As for `C[C@H](Cc1ccccc1)N(C)C(=O)Oc1cccc([C@H](C)N(C)C)c1` [Compound 7], in data set [1], the “Performance relative to scopolamine” value is on record as 298%, the “Performance relative to saline” value was 64% and the “most effective dose (the dose that increases the latency the most)” value is given as 0.25 mg/kg. The ChE inhibition in data set [3] (2 mg/kg i.p., brain 3 hours after injection) is given as 38%. Further, in data set [3] (2 mg/kg i.p., brain 3 hours after injection, relative to saline treated rats), the “Relative ChE Activity” value is on record as 62%. For the same molecule, the “tolerability of the dose” value in data set [3] was “well-tolerated”.
